# Assay results: patent US20120251643A1, “ANTI-DIABETIC EXTRACT OF HONEYBUSH” (Zadec ApS, priority 2007, published 2012)
# Assays:
# [1] = system: diabetic rats (T1D and T2D); test: Flavonoids and extract administered to diabetic rats; format: in vivo; settings: for results in diabetic rats compared with the extract: extracted and fractionated from Cyclopia
# Description: The flavonoids specifically used were mangiferin and hesperidin.
# Experiments with diabetic test animals (rats) were carried out.
# [2] = Bioassay of purified fractions for anti-diabetic activity
# Text: The partially purified active extract may be dissolved in methanol, and may be further fractionated by column chromatography, employing silica gel as an adsorption medium and a chloroform/30% methanol mixture as an eluent. A plurality of different fractions may be obtained, and each may be evaluated, by suitable bioassaying procedures, to determine the anti-diabetic activity thereof.
# A fraction having anti-diabetic activity may preferably be further fractionated such as by column chromatography using silica gel as an adsorption medium and a 9:1 chloroform:methanol solvent, and the resultant sub-fractions bioassayed for their anti-diabetic activity. A sub-fraction displaying anti-diabetic activity may, if desired, be further fractionated and purified, conveniently using a column chromatographic procedure with silica gel as the adsorption medium and a 9:1 ethylacetate:hexane solvent. The resultant purified fractions may again be evaluated by suitable bioassay procedures for their anti-diabetic activity.
SMILES,lowering of blood sugar and diabetic symptoms ([1]; both T1D and T2D rats),results in diabetic rats compared with the extract [1],anti-diabetic activity of purified fraction [2]
O=c1c2cc(O)c(O)cc2oc2cc(O)c([C@@H]3O[C@H](CO)[C@@H](O)[C@H](O)[C@H]3O)c(O)c12 [mangiferin],effective in lowering the blood sugar and generally alleviating diabetic symptoms,results similar to those produced by the extract,superior anti-diabetic activity
"COc1ccc([C@@H]2CC(=O)c3c(O)cc(O[C@@H]4O[C@H](CO[C@@H]5O[C@@H](C)[C@H](O)[C@@H](O)[C@H]5O)[C@@H](O)[C@H](O)[C@H]4O)cc3O2)cc1O [hesperidin, 7-[[6-O-(6-deoxy-α-L-mannopyranosyl)-β-D-glucopyranosyl]oxy]-2,3-dihydro-5-hydroxy-2-(3-hydroxy-4-methoxyphenyl)-4H-1-benzopyran-4-on]",,results similar to those produced by the extract,
